What was measured:
HMG-CoA reductase [1] = molecular target: T1, HMG-CoA reductase (Rattus norvegicus, UniProt P51639); details: 25 μM; glial cells; cited from earlier work
T1 construct: in an in vitro model with glial cells; host or cells: C6 glioma cells (endogenous enzyme, inferred)
T1 sequence (P51639 1-887): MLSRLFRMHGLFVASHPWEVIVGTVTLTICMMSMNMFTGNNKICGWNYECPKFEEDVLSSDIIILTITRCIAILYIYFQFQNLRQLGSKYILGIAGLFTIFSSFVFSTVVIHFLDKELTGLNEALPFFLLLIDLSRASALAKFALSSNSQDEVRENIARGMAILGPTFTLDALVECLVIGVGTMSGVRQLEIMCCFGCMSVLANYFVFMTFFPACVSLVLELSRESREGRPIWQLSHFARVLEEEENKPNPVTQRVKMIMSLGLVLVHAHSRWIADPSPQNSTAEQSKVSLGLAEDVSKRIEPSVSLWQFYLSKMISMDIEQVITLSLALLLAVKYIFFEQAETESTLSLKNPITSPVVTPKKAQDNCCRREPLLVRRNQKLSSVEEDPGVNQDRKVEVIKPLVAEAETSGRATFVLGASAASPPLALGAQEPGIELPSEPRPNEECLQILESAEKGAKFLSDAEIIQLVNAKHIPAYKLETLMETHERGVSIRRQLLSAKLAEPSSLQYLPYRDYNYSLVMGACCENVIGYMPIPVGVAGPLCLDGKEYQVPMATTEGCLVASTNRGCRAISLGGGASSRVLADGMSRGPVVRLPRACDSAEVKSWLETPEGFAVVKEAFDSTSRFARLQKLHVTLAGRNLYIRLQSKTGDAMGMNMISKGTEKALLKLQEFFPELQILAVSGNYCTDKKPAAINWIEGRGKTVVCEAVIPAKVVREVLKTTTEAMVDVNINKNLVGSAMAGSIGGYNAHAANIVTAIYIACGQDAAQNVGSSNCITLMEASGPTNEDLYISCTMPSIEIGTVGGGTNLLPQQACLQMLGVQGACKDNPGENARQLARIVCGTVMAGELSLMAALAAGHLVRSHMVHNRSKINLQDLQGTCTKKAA

HMG-COA reductase [2] = details: rat hepatocytes, in vitro; cited from earlier work
HMG-CoA reductase [3] = molecular target: T2, HMG-CoA reductase (Homo sapiens, UniProt P04035); assay: HMG-CoA reductase inhibition, spectrophotometric (absorbance at 340 nm, oxidation of NADPH); assay type: biochemical; details: for Percentage inhibition HMGR: positive control
T2 construct: oxidation of NADPH by the catalytic subunit of HMG-CoA reductase; purchased
T2 sequence (P04035 426-888 limits assumed): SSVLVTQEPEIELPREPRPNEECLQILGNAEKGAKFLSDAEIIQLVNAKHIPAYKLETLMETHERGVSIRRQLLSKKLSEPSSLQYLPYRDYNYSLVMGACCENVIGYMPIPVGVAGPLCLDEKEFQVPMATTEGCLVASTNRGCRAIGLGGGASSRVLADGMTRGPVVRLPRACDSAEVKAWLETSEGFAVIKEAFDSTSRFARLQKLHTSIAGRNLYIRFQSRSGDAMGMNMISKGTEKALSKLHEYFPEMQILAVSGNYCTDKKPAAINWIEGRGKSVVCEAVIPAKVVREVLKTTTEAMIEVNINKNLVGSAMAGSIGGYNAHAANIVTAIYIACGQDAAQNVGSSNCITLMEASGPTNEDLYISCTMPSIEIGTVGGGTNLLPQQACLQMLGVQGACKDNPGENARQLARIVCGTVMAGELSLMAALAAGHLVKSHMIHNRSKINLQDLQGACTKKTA
Experimental: The screening was performed with an analysis kit that evaluates inhibition of HMG-CoA reductase. The assay was based on spectrophotometric measurement of the reduction of absorbance at 340 nm, which represents oxidation of NADPH by the catalytic subunit of HMG-CoA reductase in the presence of the HMG-COA substrate. The reaction is as follows: HMG-CoA+2NADPH+2H^+ ? mevalonate+2NADP^++CoA-SH. Modulation of the activity of the enzyme, and in particular its inhibition, was calculated as % variation relative to the activity measured under the control condition, i.e. in the absence of any inhibitor. The biochemical system was verified with the use of a positive control, pravastatin, at the doses of 212.5 mg (100 mM), 80 mg, 40 mg and 20 mg.
A first test session was conducted with pravastatin as positive control at the theoretical concentration calculated as administration dose in the systemic circulation (5 L, mean blood volume of an adult weighing about 70 kg);
Each test was conducted in triplicate, and the compounds were tested at different concentrations. […]

[4] = 250 mg daily for three months, patients with metabolic syndrome; cited from earlier work
[5] = 2022 meta-analysis; dose an essential factor; cited from earlier work
[6] = oral doses from 100 mg to 2800 mg; cited from earlier work
HMG-CoA reductase [7] = molecular target: T3, HMG-CoA reductase (Homo sapiens, UniProt P04035); details: 10 μg/mL; compared with pravastatin; cited from earlier work
T3 sequence (P04035 1-888): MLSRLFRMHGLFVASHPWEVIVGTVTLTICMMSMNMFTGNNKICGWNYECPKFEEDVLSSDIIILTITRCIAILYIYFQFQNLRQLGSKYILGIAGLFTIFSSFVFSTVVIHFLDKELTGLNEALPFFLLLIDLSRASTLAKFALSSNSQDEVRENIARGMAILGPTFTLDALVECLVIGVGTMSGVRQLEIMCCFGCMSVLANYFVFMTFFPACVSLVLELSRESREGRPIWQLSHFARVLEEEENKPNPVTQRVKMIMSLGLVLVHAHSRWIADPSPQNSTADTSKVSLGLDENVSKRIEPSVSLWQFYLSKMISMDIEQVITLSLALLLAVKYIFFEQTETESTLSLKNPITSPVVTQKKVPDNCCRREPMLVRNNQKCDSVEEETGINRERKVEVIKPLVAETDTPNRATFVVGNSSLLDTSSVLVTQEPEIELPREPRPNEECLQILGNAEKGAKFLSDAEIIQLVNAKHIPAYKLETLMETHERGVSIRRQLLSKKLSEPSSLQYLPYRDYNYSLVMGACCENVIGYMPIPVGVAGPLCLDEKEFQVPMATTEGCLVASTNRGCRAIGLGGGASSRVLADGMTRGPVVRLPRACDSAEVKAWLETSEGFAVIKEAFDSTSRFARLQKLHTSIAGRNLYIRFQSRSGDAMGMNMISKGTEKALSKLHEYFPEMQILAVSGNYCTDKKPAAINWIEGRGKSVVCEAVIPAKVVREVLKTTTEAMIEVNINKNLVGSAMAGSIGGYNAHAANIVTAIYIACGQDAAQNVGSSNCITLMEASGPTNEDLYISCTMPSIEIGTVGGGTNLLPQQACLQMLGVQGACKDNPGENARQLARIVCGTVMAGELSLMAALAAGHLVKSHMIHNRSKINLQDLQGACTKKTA

OCCc1ccc(O)c(O)c1 [hydroxytyrosol]
reduction of HMG-COA reductase activity (HMG-CoA reductase [1]): 16%
synthesis of fatty acids and cholesterol (HMG-CoA reductase [1]): downregulating effect

C/C=C1/[C@H](O[C@@H]2O[C@H](CO)[C@@H](O)[C@H](O)[C@H]2O)OC=C(C(=O)OC)[C@H]1CC(=O)OCCc1ccc(O)c(O)c1 [oleuropein]
activity of HMG-COA reductase (HMG-COA reductase [2]): reduces the activity of hydroxymethylglutaryl-CoA reductase
cholesterol synthesis (HMG-COA reductase [2]): reduction in cholesterol synthesis

CC[C@H](C)C(=O)O[C@H]1C[C@H](O)C=C2C=C[C@H](C)[C@H](CC[C@@H](O)C[C@@H](O)CC(=O)O)[C@H]21 [Pravastatin, pravastatin]
Percentage inhibition HMGR (HMG-CoA reductase [3]; 20 mg (theoretical concentration of dose in 5 L blood)): 56.3%
Percentage inhibition HMGR (HMG-CoA reductase [3]; 40 mg (theoretical concentration of dose in 5 L blood)): 68.9%
Percentage inhibition HMGR (HMG-CoA reductase [3]; 80 mg (theoretical concentration of dose in 5 L blood)): 85.9%

Oc1ccc(C=Cc2cc(O)cc(O)c2)cc1 [Resveratrol, resveratrol]
inhibition at 0.0102 µg/mL (HMG-CoA reductase [3]; Test 1, 0.0102 μg/ml, 1:200 dilution, oral dose 10 mg, read-out: Percentage inhibition HMGR): 0%
total cholesterol level [4]: reduces the total cholesterol level
total cholesterol and LDL cholesterol levels [5]: can be useful to reduce total cholesterol and LDL cholesterol levels

O=C(O)[C@H]1O[C@@H](Oc2cc3oc(-c4ccccc4)cc(=O)c3c(O)c2O)[C@H](O)[C@@H](O)[C@@H]1O [baicalin]
proportionality in absorption depending on the oral dose [6]: did not indicate a proportionality in absorption
HMG-COA reductase inhibitory activity (HMG-CoA reductase [7]): lower than with pravastatin

Reference: patent publication US20260294995A1, “COMPOSITION FOR ORAL USE WITH HMG-COA REDUCTASE ENZYME INHIBITING ACTIVITY” (DIFASS INTERNATIONAL S.P.A., priority 2023, published 2026)
